Measurements reported in patent publication US6319897A, “Peptides which inhibit complement activation” (priority 1999, dated 2001).
Read-outs that look alike come from different tables or passages of the source. Values belong to the compound of their own block, whether it stands above or below them. Where a SMILES comes first, the peptide text is derived from it. Bridges are numbered along the chain shown (N, C = ends).

Assays:
C3b = target: T1, C3b (Homo sapiens, UniProt P01024); assay: Phage clone binding ELISA, immobilized C3b; details: 2 μg coated, 1 hour 22° C.
T1 construct: from tissue; host or cells: normal human plasma; C3 cleaved with trypsin, Mono Q purified
Method: (§1) Microtiter wells were coated with 2 μg of C3, C3b, C3c or C3d, saturated with blocking buffer, washed with PBS (pH 7.4) containing 0.05% Tween 20, and incubated 1 hour at 22° C. with a positive (clone 9) or negative (clone 1) clone. Binding was inhibited by adding 250 μg/ml of aggregated C3 in PBS, pH 7.4. Bound M13 phage particles were detected by peroxidase-coupled anti-M13 antibody and ABTS peroxidase substrate. Diagonally lined bars represent peroxidase-coupled anti-M13 antibody bound non-specifically to the plate; cross-hatched bars represent clone 9 bound to C3 or C3 fragments; horizontally lined bars represent clone 9 bound to C3 or C3 fragments in the presence of 250 μg/ml of aggregated C3; and vertically lined bars represent clone 1 bound to C3 or C3 fragments.
(§2) The C3-binding phage was isolated by screening the phage library described in Example 3. Microtiter well plates (Nunc Inc., Naperville, Ill.) were coated overnight with 20 μg of C3b in PBS at 4° C. and blocked with PBS containing 1% BSA for 30 minutes at 22° C. […] The amplified phage mixture obtained after the third round of amplification was plated, and positive phage were identified by confirming their binding to C3b in an ELISA, in which bound phage were detected by peroxidase-labeled anti-M13 antibody (Pharmacia). […]

C3c = target: T2, C3c (Homo sapiens, UniProt P01024); assay: Phage clone binding ELISA, immobilized C3c; details: 2 μg coated, 1 hour 22° C.
T2 construct: C3c, 135,300 Mr fragment of C3 generated using elastase; from tissue; host or cells: normal human plasma; C3 treated with elastase, Mono Q purified
T2 sequence (P01024 23-667 limits assumed): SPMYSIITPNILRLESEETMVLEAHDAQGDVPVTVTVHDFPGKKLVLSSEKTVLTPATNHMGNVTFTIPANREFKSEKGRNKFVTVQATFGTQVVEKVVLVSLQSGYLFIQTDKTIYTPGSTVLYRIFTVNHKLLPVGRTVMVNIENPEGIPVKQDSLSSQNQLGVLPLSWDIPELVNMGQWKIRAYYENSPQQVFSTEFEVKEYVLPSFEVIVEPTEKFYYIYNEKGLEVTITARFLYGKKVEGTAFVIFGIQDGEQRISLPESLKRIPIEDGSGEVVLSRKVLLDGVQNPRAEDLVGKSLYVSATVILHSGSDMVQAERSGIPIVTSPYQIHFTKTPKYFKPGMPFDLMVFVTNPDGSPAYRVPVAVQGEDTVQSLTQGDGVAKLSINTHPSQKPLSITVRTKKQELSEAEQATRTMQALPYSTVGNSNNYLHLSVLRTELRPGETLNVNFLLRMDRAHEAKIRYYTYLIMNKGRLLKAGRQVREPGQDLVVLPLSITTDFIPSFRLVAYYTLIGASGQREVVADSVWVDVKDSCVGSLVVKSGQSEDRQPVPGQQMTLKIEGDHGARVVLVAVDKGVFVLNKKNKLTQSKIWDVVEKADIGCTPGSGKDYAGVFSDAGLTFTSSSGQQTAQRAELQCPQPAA
T2 sequence (P01024 749-954 limits assumed): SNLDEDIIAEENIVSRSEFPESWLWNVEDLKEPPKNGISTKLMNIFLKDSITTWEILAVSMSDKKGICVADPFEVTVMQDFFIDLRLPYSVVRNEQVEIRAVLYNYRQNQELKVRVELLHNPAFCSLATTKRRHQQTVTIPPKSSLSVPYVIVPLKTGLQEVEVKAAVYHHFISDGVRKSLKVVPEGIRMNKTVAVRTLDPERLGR
T2 sequence (P01024 1321-1663 limits assumed): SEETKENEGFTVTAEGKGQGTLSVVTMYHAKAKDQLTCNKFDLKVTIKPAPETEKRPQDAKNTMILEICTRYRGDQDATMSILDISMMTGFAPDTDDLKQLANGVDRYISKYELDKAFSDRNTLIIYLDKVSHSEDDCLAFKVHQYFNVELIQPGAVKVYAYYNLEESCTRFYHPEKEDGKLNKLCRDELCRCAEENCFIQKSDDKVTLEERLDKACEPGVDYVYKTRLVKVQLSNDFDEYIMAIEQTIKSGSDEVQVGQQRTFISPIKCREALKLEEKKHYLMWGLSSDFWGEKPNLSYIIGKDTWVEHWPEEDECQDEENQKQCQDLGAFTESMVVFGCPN
Method: as §1, §2

C3 = target: T3, C3 (Homo sapiens, UniProt P01024); assay: Phage clone binding ELISA, immobilized C3; details: 2 μg coated, 1 hour 22° C.
T3 construct: purified from normal human plasma in accordance with well known procedures; from tissue; host or cells: normal human plasma (C3, factor B)
T3 sequence (P01024 23-667 limits assumed): as the sequence (P01024 23-667 limits assumed) above
T3 sequence (P01024 672-1663 limits assumed): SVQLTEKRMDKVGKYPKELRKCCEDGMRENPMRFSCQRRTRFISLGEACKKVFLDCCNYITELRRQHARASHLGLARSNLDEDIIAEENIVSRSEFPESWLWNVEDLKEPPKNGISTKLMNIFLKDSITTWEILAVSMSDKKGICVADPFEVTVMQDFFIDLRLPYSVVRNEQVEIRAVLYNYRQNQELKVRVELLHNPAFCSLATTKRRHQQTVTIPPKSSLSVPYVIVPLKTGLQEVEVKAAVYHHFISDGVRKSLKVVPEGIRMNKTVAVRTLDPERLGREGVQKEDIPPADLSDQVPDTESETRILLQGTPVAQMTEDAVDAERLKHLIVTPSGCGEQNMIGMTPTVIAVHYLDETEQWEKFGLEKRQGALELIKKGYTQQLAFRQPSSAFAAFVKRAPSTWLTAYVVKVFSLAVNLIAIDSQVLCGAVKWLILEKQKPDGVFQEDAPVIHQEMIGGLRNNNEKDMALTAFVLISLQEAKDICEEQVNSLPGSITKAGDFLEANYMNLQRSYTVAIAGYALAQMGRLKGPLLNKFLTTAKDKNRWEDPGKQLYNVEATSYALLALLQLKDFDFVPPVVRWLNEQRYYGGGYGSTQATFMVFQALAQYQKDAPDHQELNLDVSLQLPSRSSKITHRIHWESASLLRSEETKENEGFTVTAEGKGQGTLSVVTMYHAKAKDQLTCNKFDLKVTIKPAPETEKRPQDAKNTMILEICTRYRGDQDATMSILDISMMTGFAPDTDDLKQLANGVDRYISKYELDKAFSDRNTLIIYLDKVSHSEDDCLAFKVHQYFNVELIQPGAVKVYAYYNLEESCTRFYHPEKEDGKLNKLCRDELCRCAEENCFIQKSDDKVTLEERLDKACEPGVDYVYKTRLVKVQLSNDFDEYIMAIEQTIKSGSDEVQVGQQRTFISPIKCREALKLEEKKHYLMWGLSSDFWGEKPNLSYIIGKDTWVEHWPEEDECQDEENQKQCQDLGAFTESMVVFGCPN
Method: as §1, §2

C3d = target: T4, C3d (Homo sapiens, UniProt P01024); assay: Phage clone binding ELISA, immobilized C3d; details: 2 μg coated, 1 hour 22° C.
T4 construct: C3d, 35,000 Mr fragment of C3 generated using elastase; from tissue; host or cells: normal human plasma; C3 treated with elastase, Mono Q purified
T4 sequence (P01024 1002-1303 limits assumed): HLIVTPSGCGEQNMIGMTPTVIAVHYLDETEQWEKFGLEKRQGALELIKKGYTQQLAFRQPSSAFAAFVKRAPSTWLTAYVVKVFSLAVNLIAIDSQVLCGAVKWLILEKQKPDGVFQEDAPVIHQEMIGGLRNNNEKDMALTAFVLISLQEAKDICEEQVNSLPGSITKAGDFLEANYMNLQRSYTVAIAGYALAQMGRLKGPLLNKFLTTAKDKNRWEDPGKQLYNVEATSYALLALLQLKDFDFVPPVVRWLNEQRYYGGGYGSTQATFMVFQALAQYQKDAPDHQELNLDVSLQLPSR
Method: as §1, §2

[1] = test system: alternative pathway-mediated hemolytic activity (thioester of C3); details: read-out: 50% inhibitory concentration, alternative pathway-mediated hemolytic activity; cited from earlier work
[2] = test system: classical pathway-mediated hemolytic activity (thioester of C3); details: read-out: 50% inhibitory concentration, classical pathway-mediated hemolytic activity; cited from earlier work
[3] = target: alternative pathway of complement activation (Homo sapiens, UniProt P01024); assay: Hemolytic assay, alternative pathway: lysis of rabbit erythrocytes in normal human serum with MgEGTA; type: cell-based
alternative pathway of complement activation, sequence (P01024 23-1663): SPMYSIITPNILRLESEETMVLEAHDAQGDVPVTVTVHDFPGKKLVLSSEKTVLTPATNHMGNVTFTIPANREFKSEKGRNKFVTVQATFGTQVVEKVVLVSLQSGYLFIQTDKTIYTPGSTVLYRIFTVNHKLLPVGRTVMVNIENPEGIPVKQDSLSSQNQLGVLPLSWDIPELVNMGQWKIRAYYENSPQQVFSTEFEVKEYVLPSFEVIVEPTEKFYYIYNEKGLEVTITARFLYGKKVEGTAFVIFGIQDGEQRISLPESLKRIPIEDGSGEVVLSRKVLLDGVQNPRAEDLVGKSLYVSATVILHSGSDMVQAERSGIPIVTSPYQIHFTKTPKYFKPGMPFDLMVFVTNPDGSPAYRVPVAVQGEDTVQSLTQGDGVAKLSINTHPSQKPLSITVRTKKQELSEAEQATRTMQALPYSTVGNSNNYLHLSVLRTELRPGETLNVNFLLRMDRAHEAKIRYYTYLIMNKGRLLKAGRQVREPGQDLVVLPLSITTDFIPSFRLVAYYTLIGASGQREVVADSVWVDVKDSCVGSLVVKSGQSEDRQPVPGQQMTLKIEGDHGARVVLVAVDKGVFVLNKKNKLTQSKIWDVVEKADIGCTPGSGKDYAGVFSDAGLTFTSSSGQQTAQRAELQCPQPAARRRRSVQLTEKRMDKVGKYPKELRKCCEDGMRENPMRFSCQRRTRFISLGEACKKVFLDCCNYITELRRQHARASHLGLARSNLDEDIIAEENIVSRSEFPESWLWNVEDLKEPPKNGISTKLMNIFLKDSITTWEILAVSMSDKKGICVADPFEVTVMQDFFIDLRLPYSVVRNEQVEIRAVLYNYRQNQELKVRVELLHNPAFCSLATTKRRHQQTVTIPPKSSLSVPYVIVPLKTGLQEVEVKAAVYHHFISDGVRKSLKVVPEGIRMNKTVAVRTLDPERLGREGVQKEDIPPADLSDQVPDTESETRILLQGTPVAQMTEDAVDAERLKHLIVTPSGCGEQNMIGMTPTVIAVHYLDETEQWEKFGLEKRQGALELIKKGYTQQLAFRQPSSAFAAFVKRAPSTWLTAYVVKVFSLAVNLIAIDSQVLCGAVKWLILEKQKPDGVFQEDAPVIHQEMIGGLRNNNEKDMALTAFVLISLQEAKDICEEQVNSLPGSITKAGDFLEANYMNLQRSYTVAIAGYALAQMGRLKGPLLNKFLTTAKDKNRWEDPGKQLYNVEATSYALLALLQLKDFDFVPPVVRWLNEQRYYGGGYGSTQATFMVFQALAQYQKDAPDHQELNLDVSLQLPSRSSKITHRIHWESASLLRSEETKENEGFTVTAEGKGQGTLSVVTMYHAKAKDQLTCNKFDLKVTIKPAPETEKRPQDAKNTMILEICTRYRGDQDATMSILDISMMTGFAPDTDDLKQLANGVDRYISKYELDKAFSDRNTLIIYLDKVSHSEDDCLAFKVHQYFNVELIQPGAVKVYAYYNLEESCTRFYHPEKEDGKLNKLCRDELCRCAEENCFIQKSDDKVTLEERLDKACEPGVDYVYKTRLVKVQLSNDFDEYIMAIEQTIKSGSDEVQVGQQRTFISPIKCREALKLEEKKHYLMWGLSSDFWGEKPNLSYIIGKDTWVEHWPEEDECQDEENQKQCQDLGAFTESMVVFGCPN
Method: Inhibition of the alternative pathway was measured by using rabbit erythrocytes in the presence of MgEGTA (FIG. 3A); inhibition of lysis of antibody-coated sheep erythrocytes was used as an indicator of inhibition of the classical pathway (FIG. 3B).
Inhibition of classical and alternative pathway activity by the peptides was measured. […] The reaction mixture was incubated at 37° C. for 1 hour and centrifuged. […] The effect of peptides on the alternative pathway was determined by measuring the lysis of rabbit erythrocytes (Er) in NHS. Various concentrations of peptide were mixed with 5 μl of NHS, 5 μl of MgEGTA and 10 μl of Er (1×10^9 /ml) and brought to a final volume of 100 μl in GVB. The reaction mixture was incubated at 37° C. for 20 minutes and stopped by adding 200 μl of GVBE. […] The percentage of lysis was normalized by considering 100% lysis to be equal to the lysis occurring in the absence of the peptide.

complement [4] = details: in vivo; cited from earlier work
complement [5] = assay: Complement-mediated hemolytic assay (pathway not stated); type: cell-based
Method: Inhibition of classical and alternative pathway activity by the peptides was measured. To determine the effect of peptides on the classical pathway, various concentrations of peptide were mixed with 11 μl of normal human serum (NHS, diluted 1:10 in GVB^++) and 5 μl of sheep erythrocytes coated with antibodies (EA) (1×10^9 /ml) and GVB^++ was added to give a total volume of 250 μl. The reaction mixture was incubated at 37° C. for 1 hour and centrifuged. The percentage of lysis was determined by measuring the optical density of the supernatant at 414 nm. The effect of peptides on the alternative pathway was determined by measuring the lysis of rabbit erythrocytes (Er) in NHS. Various concentrations of peptide were mixed with 5 μl of NHS, 5 μl of MgEGTA and 10 μl of Er (1×10^9 /ml) and brought to a final volume of 100 μl in GVB. The reaction mixture was incubated at 37° C. for 20 minutes and stopped by adding 200 μl of GVBE. After centrifugation, hemolysis was determined at 414 nm. The percentage of lysis was normalized by considering 100% lysis to be equal to the lysis occurring in the absence of the peptide.

[6] = read-out: ALTERNATIVE PATHWAY IC50

binding of phage clone to C3b (C3b): bound
binding of phage clone to C3c (C3c): bound
binding of phage clone to C3 (C3): bound
binding of phage clone to C3d (C3d): not to C3d
Compound: SSICVVQDWGHHRCTAGHMANLTSHASAIR [Clone 9]

Compound: O=C(NO)c1ccccc1O [salicyl hydroxamate]
IC50 [1]: 33 µM
IC50 [2]: 280 µM

Compound: CC(C)[C@@H]1NC(=O)[C@H](C(C)C)NC(=O)[C@@H](N)CSSC[C@@H](C(N)=O)NC(=O)[C@H](CCCNC(=N)N)NC(=O)[C@H](Cc2c[nH]cn2)NC(=O)[C@H](C)NC(=O)CNC(=O)[C@H](Cc2c[nH]c3ccccc23)NC(=O)[C@H](CC(=O)O)NC(=O)[C@H](CCC(N)=O)NC1=O [XXI] (H-CVVQDWGAHRC-NH2; disulfide 1-11)
IC50 ([3]; read-out: A[…] IC50): 15 µM

Compound: sCR1: soluble form of CR1 (complement receptor 1)
complement suppression in complement-dependent disease models (complement [4]): suppresses complement

Compound: CC(C)[C@@H]1NC(=O)[C@H](C(C)C)NC(=O)[C@@H](N)CSSC[C@@H](C(N)=O)NC(=O)[C@H](CCCNC(=N)N)NC(=O)[C@H](Cc2c[nH]cn2)NC(=O)[C@H](Cc2c[nH]cn2)NC(=O)CNC(=O)[C@H](Cc2c[nH]c3ccccc23)NC(=O)[C@H](CC(=O)O)NC(=O)[C@H](C)NC1=O [XVII] (H-CVVADWGHHRC-NH2; disulfide 1-11)
IC50 ([3]; read-out: A[…] IC50): 910 µM

Compound: CC(C)[C@@H]1NC(=O)[C@@H](N)CSSC[C@@H](C(N)=O)NC(=O)[C@H](CCCNC(=N)N)NC(=O)[C@H](Cc2c[nH]cn2)NC(=O)[C@H](Cc2c[nH]cn2)NC(=O)CNC(=O)[C@H](Cc2c[nH]c3ccccc23)NC(=O)[C@H](CC(=O)O)NC(=O)[C@H](CCC(N)=O)NC(=O)[C@H](C)NC1=O [XVI] (H-CVAQDWGHHRC-NH2; disulfide 1-11)
IC50 ([3]; read-out: A[…] IC50): 67 µM

Compound: CC(C)[C@@H]1NC(=O)[C@@H](N)CSSC[C@@H](C(=O)N[C@H](C(N)=O)[C@@H](C)O)NC(=O)[C@H](CCCNC(=N)N)NC(=O)[C@H](Cc2c[nH]cn2)NC(=O)[C@H](Cc2c[nH]cn2)NC(=O)CNC(=O)[C@H](Cc2c[nH]c3ccccc23)NC(=O)[C@H](CC(=O)O)NC(=O)[C@H](CCC(N)=O)NC1=O [XII] (H-CVQDWGHHRCT-NH2; disulfide 1-10)
IC50 [3, 6]: > 600 µM

Compound: CC(C)[C@@H]1NC(=O)[C@H](C(C)C)NC(=O)[C@@H](N)CSSC[C@@H](C(N)=O)NC(=O)[C@H](CCCNC(=N)N)NC(=O)[C@H](C)NC(=O)[C@H](Cc2c[nH]cn2)NC(=O)CNC(=O)[C@H](Cc2c[nH]c3ccccc23)NC(=O)[C@H](CC(=O)O)NC(=O)[C@H](CCC(N)=O)NC1=O [XXII] (H-CVVQDWGHARC-NH2; disulfide 1-11)
IC50 ([3]; read-out: A[…] IC50): 74 µM

Compound: CC(C)[C@@H]1NC(=O)[C@H](C(C)C)NC(=O)[C@@H](N)CSSC[C@@H](C(N)=O)NC(=O)[C@H](C)NC(=O)[C@H](Cc2c[nH]cn2)NC(=O)[C@H](Cc2c[nH]cn2)NC(=O)CNC(=O)[C@H](Cc2c[nH]c3ccccc23)NC(=O)[C@H](CC(=O)O)NC(=O)[C@H](CCC(N)=O)NC1=O [XXIII] (H-CVVQDWGHHAC-NH2; disulfide 1-11)
IC50 [3, 6]: 70 µM

Compound: CC[C@H](C)[C@H](N)C(=O)N[C@@H](CSCC(N)=O)C(=O)N[C@H](C(=O)N[C@H](C(=O)N[C@@H](CCC(N)=O)C(=O)N[C@@H](CC(=O)O)C(=O)N[C@@H](Cc1c[nH]c2ccccc12)C(=O)NCC(=O)N[C@@H](Cc1c[nH]cn1)C(=O)N[C@@H](Cc1c[nH]cn1)C(=O)N[C@@H](CCCNC(=N)N)C(=O)N[C@@H](CSCC(N)=O)C(=O)N[C@H](C(N)=O)[C@@H](C)O)C(C)C)C(C)C [Peptide V]
IC50 [3, 6]: > 300 µM

Compound: C[C@@H](O)[C@H](NC(=O)[C@@H]1CSSC[C@H](N)C(=O)N[C@@H](Cc2c[nH]cn2)C(=O)N[C@@H](Cc2c[nH]cn2)C(=O)N[C@@H](CCCNC(=N)N)C(=O)N1)C(N)=O [VII] (H-CHHRCT-NH2; disulfide 1-5)
IC50 [3, 6]: > 600 µM

Compound: CC(C)[C@@H]1NC(=O)[C@H](C(C)C)NC(=O)[C@@H](N)CSSC[C@@H](C(N)=O)NC(=O)[C@H](Cc2c[nH]cn2)NC(=O)CNC(=O)[C@H](Cc2c[nH]c3ccccc23)NC(=O)[C@H](CC(=O)O)NC(=O)[C@H](CCC(N)=O)NC1=O [XIV] (H-CVVQDWGHC-NH2; disulfide 1-9)
IC50 [3, 6]: > 600 µM

Compound: C[C@@H](O)[C@H](NC(=O)[C@@H]1CSSC[C@H](N)C(=O)N[C@@H](Cc2c[nH]c3ccccc23)C(=O)NCC(=O)N[C@@H](Cc2c[nH]cn2)C(=O)N[C@@H](Cc2c[nH]cn2)C(=O)N[C@@H](CCCNC(=N)N)C(=O)N1)C(N)=O [IX] (H-CWGHHRCT-NH2; disulfide 1-7)
IC50 [3, 6]: > 600 µM

Compound: ICVVQDWGHHRCTAGHYY [SEQ ID NO: 23, peptide of the invention containing tyrosine residues at its C-terminus]
activity in hemolytic assay (complement [5]): equal activity to Peptide IV

Compound: CC(C)[C@@H]1NC(=O)[C@H](C(C)C)NC(=O)[C@@H](N)CSSC[C@@H](C(N)=O)NC(=O)[C@H](Cc2c[nH]c3ccccc23)NC(=O)[C@H](CC(=O)O)NC(=O)[C@H](CCC(N)=O)NC1=O [XIII] (H-CVVQDWC-NH2; disulfide 1-7)
IC50 [3, 6]: > 600 µM
